Several values for one entry are separate records, joined by “and”; a condition that tells them apart may be missing. Equal values may be shown once.
Columns and labels:
[1] = system: HepG2; assay: MTT cell viability assay, HepG2; format: cell-based, human; conditions: HepG2, 72 h of exposure
[2] = DPPH radical scavenging assay; format: biochemical; conditions: for % Inhibition, DPPH: 517 nm
[3] = target: BSA (Bos taurus, UniProt P02769); format: binding, bovine; conditions: for Δλ (nm), blue shift of BSA band: 25 μM BSA, compound 0–25 μM; for Binding constant Kapp by BH method (Kb, BSA): 25 °C; for Gibb's free energy change of BSA binding: T = 298 K
[4] = Nitric oxide scavenging assay; format: biochemical; conditions: 546 nm
[5] = system: A549; assay: MTT cell viability assay, A549; format: cell-based, human; conditions: A549, 72 h of exposure
[6] = system: Bacillus cereu; assay: Agar disc diffusion, strain G; format: cell-based; parameters: Inhibition%: concentration or dose not given beside the values; conditions: for Diameter of clear zone inhibition: control 6 mm
[7] = system: CT-DNA; assay: DNA thermal denaturation / biothermodynamic properties; format: binding; conditions: for Tm of DNA–substance adduct: 1:1 ratio (50 μM), free CT-DNA 68 °C; for Binding constant Kr @ 298 K: 25 °C (298 K); for ΔTm: adduct vs CT-DNA alone
[8] = system: Salmonella enterica serovar typhi; assay: Agar disc diffusion, strain C; format: cell-based; conditions: for Diameter of clear zone inhibition: control 6 mm
[9] = system: Pseudomonas aeruginosa; assay: Agar disc diffusion, strain D; format: cell-based; parameters: Inhibition%: concentration or dose not given beside the values; conditions: for Diameter of clear zone inhibition: control 6 mm
[10] = system: DNA; assay: DNA cleavage by gel electrophoresis under H2O2; format: biochemical; conditions: H2O2 environment
Description: In a cellular system, DNA base pairs can be broken by a variety of mechanisms, including errors in DNA replication, generation of a heteroduplex during homologous recombination, spontaneous deamination of cytosine, and base pairs broken by mutagens or ionizing radiation, which also lead to improper base pairing and mutations. Also, metal complexes have the capability of recognizing DNA mismatches and may become vital entities for investigation and possibly for clinical applications.[55] Moreover, the cleavage of one or both DNA strands is a typical and essential process for maintaining cell viability: during DNA replication and transcription, topoisomerase enzymes correct topological issues, and various nucleases take part in repair mechanisms and DNA degradation, which is one of the distinguishing features of apoptotic programmed cell death. Similarly, several antitumor drugs have the potential to cleave DNA by inducing apoptosis, which eventually leads to cancer cell death. Conversely, molecules that can interact with DNA's major or minor grooves are known as groove-binding molecules, which disrupt and impair the function of the DNA double helix via various non-covalent interactions. The DNA nuclease properties of all samples were assessed in an H2O2 environment by the gel electrophoresis method. DNA cleavage was monitored during the conversion of supercoiled plasmids into linear and nicked DNA fragments. Also, the observed DNA nuclease efficacy for all complexes (1–3) was compared with the free ligand (HL) and CT-DNA alone. No substantial nuclease activity can be seen in the control (Fig. 1 and S13 ^†) (lane 1; DNA + H2O2) even after a lot of time has passed, and free ligand (HL) (lane 2) was monitored as immobile in an H2O2 environment. […] Consequently, it is commonly acknowledged that ROS plays a dual physiological role in controlling a variety of illnesses as well as cellular homeostasis (self-regulating processes like thermoregulation, blood glucose regulation, calcium/potassium homeostasis, and osmoregulation).[56] […] Additionally, it is widely known that the NADPH oxidase enzyme produces reactive oxygen species as part of its antibacterial effect on phagocytic cells. Nevertheless, these types of enzyme seem to be present in a variety of other cells and may have significant signalling pathway functions. When non-carcinogenic toxicity events occur, ROS has the ability to alter cell function as well as to affect the genesis of cancer at several levels. OH˙ can attack DNA, proteins, and lipids due to its high reactivity among ROS. Also, the hydroxyl radical is a key participant in free-radical-mediated hazardous reactions because of its great reactivity. […]

| Compound | % Inhibition, DPPH ([2]; 40 µM) | % Inhibition, DPPH ([2]; 80 µM) | % Inhibition, DPPH ([2]; 120 µM) | % Inhibition, DPPH ([2]; 160 µM) | % Inhibition, DPPH ([2]; 200 µM) | % Inhibition, DPPH ([2]; 240 µM) | Δλ (nm), blue shift of BSA band [3] | Binding constant Kapp by BH method (Kb, BSA) [3] | Gibb's free energy change of BSA binding [3] | % Inhibition, nitric oxide ([4]; 40 µM) | % Inhibition, nitric oxide ([4]; 80 µM) | % Inhibition, nitric oxide ([4]; 120 µM) | % Inhibition, nitric oxide ([4]; 160 µM) | % Inhibition, nitric oxide ([4]; 200 µM) | % Inhibition, nitric oxide ([4]; 240 µM) | Inhibition% [6] | Diameter of clear zone inhibition [6] | Tm of DNA–substance adduct [7] | Binding constant ([7]; 10 °C (283 K)) | Binding constant Kr @ 298 K [7] | further results |
| --- | --- | --- | --- | --- | --- | --- | --- | --- | --- | --- | --- | --- | --- | --- | --- | --- | --- | --- | --- | --- | --- |
| [Mn+2].[O-]c1ccccc1N=Cc1ccc(N2CCOCC2)cc1.[O-]c1ccccc1N=Cc1ccc(N2CCOCC2)cc1.c1ccc(-c2ccccn2)nc1 [(1)] | 11.16% | 18.62% | 30.41% | 37.32% | 42.47% | 62.23% and 58.05% | 03 nm | 12429 M⁻¹ | -23.3580 kJ/mol | 13.14% | 22.48% | 28.54% | 36.64% | 44.75% | 56.69% | 57% | 14 mm | 76 °C | 72350 M⁻¹ | 18195 M⁻¹ | IC50 [1]: 36 ± 1.8 µM; IC50 [5]: 37.6 ± 1.9 µM; Binding constant ([7]; 40 °C (313 K)): 7732.1 M⁻¹; ΔTm [7]: 8 °C; Inhibition% [8]: 40%; Diameter of clear zone inhibition [8]: 10 mm; Inhibition% [9]: 63%; Diameter of clear zone inhibition [9]: 16 mm; DNA cleavage [10]: no considerable cleavage efficiency |
| [Co+2].[O-]c1ccccc1N=Cc1ccc(N2CCOCC2)cc1.[O-]c1ccccc1N=Cc1ccc(N2CCOCC2)cc1.c1ccc(-c2ccccn2)nc1 [(2)] | 14.20% | 26.76% | 31.64% | 45.67% | 52.54% | 62.23% | 02 nm | 30937 M⁻¹ | -25.6174 kJ/mol | 14.72% | 23.62% | 31.21% | 39.12% | 46.06% | 61.34% | 54% | 13 mm | 78 °C | 98820 M⁻¹ | 18806 M⁻¹ | IC50 [1]: 35.9 ± 1.8 µM; IC50 [2]: 200 µM; IC50 [5]: 34.2 ± 1.7 µM; Binding constant ([7]; 40 °C (313 K)): 8043.3 M⁻¹; ΔTm [7]: 10 °C; Inhibition% [8]: 40%; Diameter of clear zone inhibition [8]: 10 mm; Inhibition% [9]: 54%; Diameter of clear zone inhibition [9]: 13 mm; DNA cleavage [10]: complete DNA cleavage |
| [Ni+2].[O-]c1ccccc1N=Cc1ccc(N2CCOCC2)cc1.[O-]c1ccccc1N=Cc1ccc(N2CCOCC2)cc1.c1ccc(-c2ccccn2)nc1 [(3)] | 13.08% | 24.74% | 30.86% | 41.06% | 49.83% | 60.02% | 02 nm | 18374 M⁻¹ | -24.3265 kJ/mol | 14.72% | 23.28% | 29.66% | 38.63% | 45.60% | 59.65% | 54% | 13 mm | 77 °C | 91140 M⁻¹ | 18207 M⁻¹ | IC50 [1]: 33.6 ± 1.7 µM; IC50 [5]: 33.5 ± 1.7 µM; Binding constant ([7]; 40 °C (313 K)): 7879.7 M⁻¹; ΔTm [7]: 9 °C; Inhibition% [8]: 45%; Diameter of clear zone inhibition [8]: 11 mm; Inhibition% [9]: 57%; Diameter of clear zone inhibition [9]: 14 mm; DNA cleavage [10]: partial DNA cleavage |
| Oc1ccccc1N=Cc1ccc(N2CCOCC2)cc1 [(HL), 2-(4-morpholinobenzylideneamino)phenol] | 09.45% | 15.21% | 26.36% | 34.56% | 39.41% | 52.45% | 02 nm | 7556 M⁻¹ | -22.1246 kJ/mol | 11.42% | 18.26% | 24.28% | 33.21% | 40.53% | 51.62% | 33% | 09 mm | 74 °C | 52575 M⁻¹ | 15169 M⁻¹ | IC50 ([1]; Homo sapiens): 108 ± 5.4 µM; IC50 ([5]; Homo sapiens): 126 ± 6.3 µM; Binding constant ([7]; 40 °C (313 K)): 6067.4 M⁻¹; ΔTm [7]: 6 °C; Inhibition% [8]: 45%; Diameter of clear zone inhibition [8]: 11 mm; Inhibition% [9]: 25%; Diameter of clear zone inhibition [9]: 08 mm; DNA cleavage [10]: immobile |
